For 29 compounds, IC50 and GI50 results are on record in US12053459B2, “CDK2 inhibitors and methods of using the same” (Cedilla Therapeutics, Inc., priority 2021, dated 2024).

For assay [1], the target named is T1, CDK2/Cyclin E1(14-475) (Homo sapiens, UniProt P24941). The assay is described as follows: Caliper LabChip EZ Reader mobility shift assay, inhibition of CDK2/Cyclin E1 activity. It is filed as biochemical. The note with it: class symbols A-D. In short, it runs like this: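 Mobility-shift readout of fluorescent peptide (1.5 μM final) phosphorylation by 2.5 nM CDK2/Cyclin E1(14-475) at 100 μM ATP, pH 7.5. Compounds pre-incubated 30 min with enzyme before substrate addition; 100-min reaction halted by EDTA, normalized % activity fitted to four-parameter curve for IC50.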

Assay [2] relates to Kuramochi cells. The assay is described as follows: Incucyte cell proliferation assay, Kuramochi cells labeled with mApple-H2B. It is filed as cell-based. The note with it: class symbols A-D. The protocol: Kuramochi cells labeled with mApple-H2B and Kuramochi RB1−/− cells labeled with NucLight green (Sartorius, 4475) were co-plated on 384-well assay-ready plates along with test compounds at varying concentrations. Plates were placed in the IncuCyte® Sartorius and scanned at 0 and 72 hours. IncuCyte® software was used to count the number of fluorescent nuclei in each well. The fold change in cell count from 0 to 72 hours in wells treated with increasing compounds concentrations (10 pts, ½ log dilution, 20 uM top concentration) was normalized to DMSO control wells. The normalized cell counts were fit with dose response curves and a GI50 was calculated.

The test system of assay [3] is Kuramochi cells. Description: BrdU cell proliferation assay (colorimetric ELISA), Kuramochi cells. It is filed as cell-based. The settings on record: class symbols A-D. In short, it runs like this:
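Proliferation was read as BrdU incorporation: a 1 h pulse, then fixation and peroxidase-antibody ELISA at 450 nm, with values normalized to DMSO after empty-well subtraction. Treatment lasted 4 days on Kuramochi cells seeded at 2,000/well, using four 3-fold compound dilutions from 10 mM stocks. RB^KO Kuramochi cells were run in parallel for specificity.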
For orientation: In an ELISA, binding on a coated surface is turned into a signal by an enzyme label.

Assay [4] addresses T1, CDK2/Cyclin E1(14-475). Description: HotSpot kinase inhibition assay (radiometric, Reaction Biology Corporation). Type of assay: biochemical. The note with it: 10 μM ATP, class symbols A-D. As for the experimental part: Inhibition of a select panel of CDK2/CCNE1 activities in the presence of compounds of the present disclosure was evaluated using the HotSpot™ assay (proprietary to Reaction Biology Corporation). In the assay, activated CDK2/Cyclin E1 catalyzes the transfer of radioactive phosphate to amino acid residues of peptide or protein substrates, which are detected radiometrically. […] Reactions contained 20 mM HEPES pH 7.5, 10 mM MgCl2, 1 mM EGTA, 2 mM DTT, 0.02% Brij35, 0.02 mg/mL BSA, 0.1 mM Na3VO4, 1% DMSO, 1.5 nM CDK2/Cyclin E1(14-475), 10 μM ATP, and 20 μM Histone H1 protein isolated from calf thymus (Sigma).
CDK2/Cyclin E1 […] and Histone H1 were mixed in reaction buffer. To this mixture, was added dose titrations of inhibitor compounds in 100% DMSO by acoustic transfer. The compound mixtures were incubated for 20 minutes, then the kinase reactions were initiated by the addition of a mixture of ATP and ^33P ATP for final concentrations of 10 μM total ATP, 20 μM Histone H1, and 1.5 nM CDK2/Cyclin E1 (14-475). The reactions were carried out for 120 minutes, then spotted on a P81 ion exchange filter paper, and extensively washed with 0.75% phosphoric acid. The resulting radioactive counts were normalized to yield % activity, plotted against compound concentration, and fit to a four-parameter equation to determine the IC50 for each compound.

pIC50: −log10 of the molar value.

With `CNC(=O)C(NC(=O)C1CN(C(=O)Cc2c[nH]c3cc(Cl)ccc23)CC2CN(C(=O)c3ccc(OC(C)C)c(OC)c3)CC21)[C@H](C)OCc1ccccc1` (single isomer, unassigned) [I-145], the pIC50 (as a rule, −log10 of the IC50, conventionally taken in molar units) is at least 6.30 on CDK2/Cyclin E1(14-475) [1] and 5.30 to 6.30 with Kuramochi cells [3]. For the same compound, the GI50 (in general, the concentration giving 50% growth inhibition) in the assay on Kuramochi cells [2] (72 h) was in the range of 1 to 10 µM. As to `CNC(=O)[C@@H](NC(=O)C1CN(C(=O)Cc2c[nH]c3cc(Cl)ccc23)CC2CN(C(=O)c3ccc(OC(C)C)c(OC)c3)CC21)[C@H](C)OCc1ccccc1` (single isomer, unassigned) [I-146], the pIC50 is at least 6.30 on CDK2/Cyclin E1(14-475) [1] and below 5.00 with Kuramochi cells [3]. Also, the GI50 in the assay with Kuramochi cells [2] (72 h) was in the range of 10 to 20 µM. With `COc1cc(C(=O)N2CC3CN(C(=O)Cc4c[nH]c5cc(Cl)ccc45)CC(C(=O)NCc4ccc(C)nn4)C3C2)ccc1OC(C)C` (single isomer, unassigned) [I-261], the negative-log IC50 (pIC50) on CDK2/Cyclin E1(14-475) [1] was below 5.00. For the same compound, the GI50 in the assay with Kuramochi cells [2] (72 h) was above 20 µM.

With `COc1cc(C(=O)N2CC3CN(C(=O)Cc4c[nH]c5cc(Cl)ccc45)CC(C(=O)NCc4ccc(C)nn4)C3C2)ccc1OC(C)C` (single isomer, unassigned) [I-262], the pIC50 at CDK2/Cyclin E1(14-475) [1] is below 5.00. For the same compound, the GI50 in the assay on Kuramochi cells [2] (72 hours) is above 20 µM.

In the case of `CNC(=O)[C@H](CCCc1ccccc1)NC(=O)C1CN(C(=O)Cc2c[nH]c3cc(Cl)ccc23)CC2CN(C(=O)c3ccc4[nH]c(C)cc4c3)CC21` (stereo partly drawn) [I-2], the pIC50 against CDK2/Cyclin E1(14-475) [4] was 4.00 to 5.00; with Kuramochi cells [3] it was below 5.00.

Take `CNC(=O)[C@H](CCCc1ccccc1)NC(=O)C1CN(C(=O)Cc2c[nH]c3cc(Cl)ccc23)CC2CN(C(=O)c3cc(-c4ccccc4)on3)CC21` (stereo partly drawn) [I-13]: the pIC50 at CDK2/Cyclin E1(14-475) [1] was below 5.00; on CDK2/Cyclin E1(14-475) [4], below 4.00; in the assay with Kuramochi cells [3], 5.00 to 5.30. For `CNC(=O)[C@H](CCCc1ccccc1)NC(=O)C1CN(C(=O)Cc2c[nH]c3cc(Cl)ccc23)CC2CN(C(=O)c3ccc4nccnc4c3)CC21` (stereo partly drawn) [I-17], the pIC50 was below 4.00 against CDK2/Cyclin E1(14-475) [4] and below 5.00 with Kuramochi cells [3]. As for `CNC(=O)[C@H](CCCc1ccccc1)NC(=O)C1CN(C(=O)Cc2c[nH]c3cc(Cl)ccc23)CC2CN(C(=O)c3cc(-c4ccccc4)[nH]n3)CC21` (stereo partly drawn) [I-19], the pIC50 is below 5.00 on CDK2/Cyclin E1(14-475) [1], at least 6.00 at CDK2/Cyclin E1(14-475) [4] and 5.30 to 6.30 in the assay with Kuramochi cells [3]. Consider `CNC(=O)[C@H](CCCc1ccccc1)NC(=O)C1CN(C(=O)Cc2c[nH]c3cc(Cl)ccc23)CC2CN(C(=O)c3ccc(O)c(OC)c3)CC21` (stereo partly drawn) [I-32], for which the results for the negative logarithm of the IC50 (pIC50) against CDK2/Cyclin E1(14-475) [4] and in the assay with Kuramochi cells [3] were below 4.00 and below 5.00, respectively.

Regarding `CNC(=O)[C@H](CCCc1ccccc1)NC(=O)C1CN(C(=O)Cc2c[nH]c3cc(Cl)ccc23)CC2CN(C(=O)c3cccc(Oc4ccccc4)c3)CC21` (stereo partly drawn) [I-35], the pIC50 is below 4.00 against CDK2/Cyclin E1(14-475) [4] and below 5.00 with Kuramochi cells [3]. Taken in the same sequence, the figures for `CNC(=O)[C@H](CCCc1ccccc1)NC(=O)C1CN(C(=O)Cc2c[nH]c3cc(Cl)ccc23)CC2CN(C(=O)c3cncc(OC)n3)CC21` (stereo partly drawn) [I-42] were below 4.00 and below 5.00. Regarding `CNC(=O)[C@H](CCCc1ccccc1)NC(=O)C1CN(C(=O)Cc2c[nH]c3cc(Cl)ccc23)CC2CN(C(=O)c3ccccc3)CC21` (stereo partly drawn) [I-50], the results for the pIC50 on CDK2/Cyclin E1(14-475) [4] and in the assay with Kuramochi cells [3] were 5.00 to 6.00 and below 5.00, respectively.

For the compound `CNC(=O)[C@H](CCCc1ccccc1)NC(=O)C1CN(C(=O)Cc2c[nH]c3cc(Cl)ccc23)CC2CN(C(=O)c3ccc4[nH]nnc4c3)CC21` (stereo partly drawn) [I-62], the pIC50 against CDK2/Cyclin E1(14-475) [4] is below 4.00; in the assay on Kuramochi cells [3], below 5.00.

For the compound `CNC(=O)[C@H](CCCc1ccccc1)NC(=O)C1CN(C(=O)Cc2c[nH]c3cc(Cl)ccc23)CC2CN(C(=O)c3cnc4nccn4c3)CC21` (stereo partly drawn) [I-64], the values for the pIC50 at CDK2/Cyclin E1(14-475) [4] and in the assay on Kuramochi cells [3] were 4.00 to 5.00 and below 5.00, respectively. On to `CCOc1cccc(C(=O)N2CC3CN(C(=O)Cc4c[nH]c5cc(Cl)ccc45)CC(C(=O)N[C@@H](CCCc4ccccc4)C(=O)NC)C3C2)c1` (stereo partly drawn) [I-67], for which the pIC50 on CDK2/Cyclin E1(14-475) [4] is 4.00 to 5.00. For `CNC(=O)[C@H](CCCc1ccccc1)NC(=O)C1CN(C(=O)Cc2c[nH]c3cc(Cl)ccc23)CC2CN(C(=O)c3ccc4c(c3)OCCO4)CC21` (stereo partly drawn) [I-77], the figures for the pIC50 at CDK2/Cyclin E1(14-475) [4] and in the assay on Kuramochi cells [3] were below 4.00 and below 5.00, respectively. `CNC(=O)[C@H](CCCc1ccccc1)NC(=O)C1CN(C(=O)Cc2c[nH]c3cc(Cl)ccc23)CC2CN(C(=O)c3cc(C4CC4)on3)CC21` (stereo partly drawn) [I-81]: the pIC50 was 4.00 to 5.00 against CDK2/Cyclin E1(14-475) [4] and below 5.00 with Kuramochi cells [3]. The compound `CNC(=O)[C@H](Cc1ccccc1)NC(=O)C1CN(C(=O)Cc2c[nH]c3cc(Cl)ccc23)CC2CN(C(=O)c3ccc(OC(C)C)c(OC)c3)CC21` (stereo partly drawn) [I-122] gave a pIC50 against CDK2/Cyclin E1(14-475) [4] of 4.00 to 5.00. The compound `CNC(=O)[C@H](Cc1ccc(O)cc1)NC(=O)C1CN(C(=O)Cc2c[nH]c3cc(Cl)ccc23)CC2CN(C(=O)c3ccc(OC(C)C)c(OC)c3)CC21` (stereo partly drawn) [I-123] showed a pIC50 against CDK2/Cyclin E1(14-475) [4] of 4.00 to 5.00.

In the case of `CNC(=O)[C@@H](C)NC(=O)C1CN(C(=O)Cc2c[nH]c3cc(Cl)ccc23)CC2CN(C(=O)c3ccc(OC(C)C)c(OC)c3)CC21` (stereo partly drawn) [I-124], the pIC50 was below 4.00 on CDK2/Cyclin E1(14-475) [4] and below 5.00 in the assay with Kuramochi cells [3]. Consider `CNC(=O)[C@H](C)NC(=O)C1CN(C(=O)Cc2c[nH]c3cc(Cl)ccc23)CC2CN(C(=O)c3ccc(OC(C)C)c(OC)c3)CC21` (stereo partly drawn) [I-125], for which the pIC50 against CDK2/Cyclin E1(14-475) [4] was 4.00 to 5.00. With `CNC(=O)[C@H](CCCc1ccccc1)NC(=O)C1CN(C(=O)Cc2c[nH]c3cccc(Cl)c23)CC2CN(C(=O)c3ccc(OC(C)C)c(OC)c3)CC21` (stereo partly drawn) [I-221], the pIC50 on CDK2/Cyclin E1(14-475) [4] was below 4.00; in the assay with Kuramochi cells [3] it was below 5.00. `CNC(=O)[C@H](CCCc1ccccc1)NC(=O)C1CN(C(=O)Cc2c[nH]c3c(Cl)cccc23)CC2CN(C(=O)c3ccc(OC(C)C)c(OC)c3)CC21` (stereo partly drawn) [I-222] had a pIC50 on CDK2/Cyclin E1(14-475) [4] of 5.00 to 6.00. On the same count and under the same terms, under `CNC(=O)[C@H](CCCc1ccccc1)NC(=O)C1CN(C(=O)Cc2c[nH]c3cc(OC)ccc23)CC2CN(C(=O)c3ccc(OC(C)C)c(OC)c3)CC21` (stereo partly drawn) [I-235] stands 5.00 to 6.00. Turning to `CNC(=O)[C@@H](NC(=O)C1CN(C(=O)Cc2c[nH]c3cc(Cl)ccc23)CC2CN(C(=O)c3cc(-c4ccccc4)n[nH]3)CC21)[C@H](C)OCc1ccccc1` (stereo partly drawn) [I-250], the pIC50 at CDK2/Cyclin E1(14-475) [1] is 5.30 to 6.30; in the assay with Kuramochi cells [3], below 5.00. Regarding `CNC(=O)[C@@H](NC(=O)C1CN(C(=O)Cc2c[nH]c3cc(Cl)ccc23)CC2CN(C(=O)c3cc(-c4ccccc4)n[nH]3)CC21)[C@@H](C)OCC1CCCCC1` (stereo partly drawn) [I-251], the pIC50 on CDK2/Cyclin E1(14-475) [1] was below 5.00; against CDK2/Cyclin E1(14-475) [4], below 4.00; with Kuramochi cells [3] it was 5.00 to 5.30. Take `CNC(=O)[C@@H](NC(=O)C1CN(C(=O)Cc2c[nH]c3cc(Cl)ccc23)CC2CN(C(=O)c3cc(-c4ccccc4)n[nH]3)CC21)[C@@H](C)OCc1ccccc1` (stereo partly drawn) [I-252]: the pIC50 on CDK2/Cyclin E1(14-475) [1] and in the assay with Kuramochi cells [3] was below 5.00 each time. With `CNC(=O)[C@H](CCCc1ccccc1)NC(=O)C1CN(C(=O)Cc2ccnc3ccccc23)CC2CN(C(=O)c3ccc(OC(C)C)c(OC)c3)CC21` (stereo partly drawn) [I-253, 2-(4-isopropoxy-3-methoxybenzoyl)-N—((S)-1-(methylamino)-1-oxo-5-phenylpentan-2-yl)-5-(2-(quinolin-4-yl)acetyl)octahydro-1H-pyrrolo[3,4-c]pyridine-7-carboxamide], the pIC50 on CDK2/Cyclin E1(14-475) [1] and in the assay with Kuramochi cells [3] was below 5.00 throughout. On to `COC(=O)[C@@H](NC(=O)C1CN(C(=O)Cc2c[nH]c3cc(Cl)ccc23)CC2CN(C(=O)c3ccc(OC(C)C)c(OC)c3)CC21)[C@H](C)OCc1ccccc1` (stereo partly drawn) [I-255, methyl (2S,3S)-3-(benzyloxy)-2-(5-(2-(6-chloro-1H-indol-3-yl)acetyl)-2-(4-isopropoxy-3-methoxybenzoyl)octahydro-1H-pyrrolo[3,4-c]pyridine-7-carboxamido)butanoate], for which the pIC50 at CDK2/Cyclin E1(14-475) [1] is at least 6.30; with Kuramochi cells [3], 5.30 to 6.30.
